According to ChEMBL document CHEMBL4376801, “Glycans in drug discovery” (Medchemcomm, 2019):

Key:
CD209 antigen = target: T1, CD209 antigen (Homo sapiens, UniProt Q9NNX6); assay: Binding affinity to human DC-SIGN by SPR analysis
T1 sequence (Q9NNX6 whole entry): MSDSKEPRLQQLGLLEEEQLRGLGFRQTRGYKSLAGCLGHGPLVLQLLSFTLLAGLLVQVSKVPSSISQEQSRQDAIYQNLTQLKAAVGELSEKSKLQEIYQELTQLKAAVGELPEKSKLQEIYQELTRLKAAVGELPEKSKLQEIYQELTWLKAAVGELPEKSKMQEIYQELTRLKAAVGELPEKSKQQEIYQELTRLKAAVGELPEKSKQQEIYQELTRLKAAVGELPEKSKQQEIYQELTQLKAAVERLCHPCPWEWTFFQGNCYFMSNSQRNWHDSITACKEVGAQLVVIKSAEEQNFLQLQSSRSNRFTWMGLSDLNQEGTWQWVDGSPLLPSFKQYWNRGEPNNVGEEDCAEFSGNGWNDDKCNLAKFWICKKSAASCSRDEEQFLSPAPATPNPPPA

[1] = target: Type 1 fimbrin D-mannose specific adhesin (Escherichia coli K-12, UniProt P08191); assay: Binding affinity to Escherichia coli full-length FimH by competitive fluorescence polarization assay
Sequence of Type 1 fimbrin D-mannose specific adhesin (P08191 whole entry): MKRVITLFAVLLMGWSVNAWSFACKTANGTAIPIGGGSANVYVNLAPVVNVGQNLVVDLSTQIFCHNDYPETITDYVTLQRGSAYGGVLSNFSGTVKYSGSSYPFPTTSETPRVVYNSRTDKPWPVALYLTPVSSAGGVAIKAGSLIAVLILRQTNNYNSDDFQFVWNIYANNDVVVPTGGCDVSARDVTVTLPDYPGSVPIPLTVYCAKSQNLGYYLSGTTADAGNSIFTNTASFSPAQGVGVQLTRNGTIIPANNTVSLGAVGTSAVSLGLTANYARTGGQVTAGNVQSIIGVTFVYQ

Structure (SMILES)	IC50 (CD209 antigen)	Kd [1]
COC(=O)[C@H]1C[C@H](OCCN=[N+]=[N-])[C@@H](O[C@H]2O[C@H](CN)[C@@H](O)[C@H](O)[C@@H]2O)C[C@@H]1C(=O)OC	481 µM	
OC[C@H]1O[C@H](Oc2ccc(-c3ccccc3)cc2)[C@@H](O)[C@@H](O)[C@@H]1O		1.1 µM
N#Cc1c(F)c(F)c(-c2ccc(O[C@H]3O[C@H](CO)[C@@H](O)[C@H](O)[C@@H]3O)c(Cl)c2)c(F)c1F		0.0221 µM
[N-]=[N+]=NCCO[C@H]1C[C@H](C(=O)OCc2ccc(CN)cc2)[C@@H](C(=O)OCc2ccc(CN)cc2)C[C@@H]1O[C@H]1O[C@H](CN)[C@@H](O)[C@H](O)[C@@H]1O	254 µM	
